Data from patent US4605744A, “Imidazole derivatives” (Hoffmann-La Roche Inc., priority 1985, dated 1986).
Values after ≈ are worked out from the molar mass of the structure shown. Like-named read-outs stand apart in the source and are kept apart here.

Columns and labels:
[1] = tested on: E. coli 257; test: In vitro antibacterial activity (MIC, Mueller-Hinton broth); assay type: cell-based; conditions: Escherichia coli, 257
Protocol: Drug dilutions are prepared in Mueller-Hinton broth ranging from 128 to 0.008 μg/ml. The diluted agents are dispensed in 100 μl amounts into the wells of a 96-well tray and used immediately or frozen at -10° to -70° C. until needed. Using an automated inoculator, 1.5 μl of a 10^-2 dilution of an overnight culture is added to each well of the tray. The tops of the trays are then sealed using transparent tape and incubated overnight at 37° C. The trays are examined with the aid of a viewer. The lowest concentration at which no growth is observed is considered to be the minimum inhibitory concentration (MIC).

[2] = tested on: S. aureus Smith; test: In vivo antibacterial activity (PD50); conditions: Staphylococcus aureus, sc
[3] = tested on: K. pneumoniae HE7; test: In vivo antibacterial activity (PD50); conditions: Klebsiella pneumoniae, HE7, sc, 2 treatments
Protocol: (§2) The results in these Tables and the PD50 's were determined by the procedure set forth on page 160 in Beskid et al., Antimicrobial Agents and Chemotherapy, Vol. 20, No. 2 pp. 159-167 (Aug. 1981) for "in vivo studies".

[4] = tested on: E. coli 257; test: In vivo antibacterial activity (PD50); conditions: Escherichia coli, 257, sc
[5] = tested on: S. pyogenes 4; test: In vivo antibacterial activity (PD50); conditions: Streptococcus pyogenes, 4, sc, sc, read-out: PD50
[6] = tested on: S. marcescens SM; test: In vivo antibacterial activity (PD50); conditions: sc
Protocol: as §2

[7] = tested on: P. mirabilis 2; test: In vitro antibacterial activity (MIC); assay type: cell-based; conditions: Proteus mirabilis, 2
In short: (§1)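 Overnight cultures, diluted 10^-2, were added at 1.5 μl per well to twofold drug series (128–0.008 μg/ml) in Mueller-Hinton broth.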

[8] = tested on: E. cloacae 9295; test: In vitro antibacterial activity (MIC); assay type: cell-based; conditions: Enterobacter cloacae, 9295
In short: as §1

[9] = tested on: P. aeruginosa B; test: In vitro antibacterial activity (MIC); assay type: cell-based; conditions: Pseudomonas aeruginosa, read-out: MIC
In short: as §1

[10] = tested on: P. aeruginosa 6148B; test: In vitro antibacterial activity (MIC); assay type: cell-based
In short: as §1

[11] = tested on: P. aeruginosa 503-820; test: In vitro antibacterial activity (MIC); assay type: cell-based
In short: as §1

[12] = tested on: P. aeruginosa 5700; test: In vitro antibacterial activity (MIC); assay type: cell-based
In short: as §1

[13] = tested on: S. pneumoniae 6302; test: In vitro antibacterial activity (MIC); assay type: cell-based
In short: as §1

[14] = tested on: P. mirabilis 90; test: In vitro antibacterial activity (MIC); assay type: cell-based
In short: as §1

[15] = tested on: E. coli 5152; test: In vitro antibacterial activity (MIC); assay type: cell-based
In short: as §1

[16] = tested on: E. cloacae 214; test: In vitro antibacterial activity (MIC); assay type: cell-based; conditions: Enterobacter cloacae, 214
In short: as §1

[17] = tested on: P. aeruginosa 5712; test: In vitro antibacterial activity (MIC); assay type: cell-based; conditions: Pseudomonas aeruginosa, 5712
In short: as §1

[18] = tested on: P. aeruginosa 8780; test: In vitro antibacterial activity (MIC); assay type: cell-based; conditions: Pseudomonas aeruginosa, 8780
In short: as §1

[19] = tested on: S. marcescens S5; test: In vitro antibacterial activity (MIC); assay type: cell-based
In short: as §1

[20] = tested on: P. aeruginosa 6799; test: In vivo antibacterial activity (PD50); conditions: Pseudomonas aeruginosa, 6799, sc, sc, 2 treatments, read-out: PD50
Protocol: as §2

[21] = tested on: E. coli 5152; test: In vivo antibacterial activity (PD50); conditions: Escherichia coli, 5152, sc
[22] = tested on: E. cloacae 6951; test: In vivo antibacterial activity (PD50); conditions: Enterobacter cloacae, 6951, sc, 2 treatments
Protocol: as §2

[23] = tested on: S. faecalis C1; test: In vivo antibacterial activity (PD50); conditions: sc
Protocol: as §2

[24] = tested on: S. pneumoniae 6302; test: In vivo antibacterial activity (PD50); conditions: Streptococcus pneumoniae, 6302, sc
Protocol: as §2

[25] = tested on: P. aeruginosa 503-56; test: In vivo antibacterial activity (PD50); conditions: Pseudomonas aeruginosa, 50356, sc
[26] = tested on: P. aeruginosa 6719; test: In vivo antibacterial activity (PD50); conditions: Pseudomonas aeruginosa, 6719, sc, challenge 2290 LD50s, 2 treatments, Table 11
Protocol: as §2

[27] = challenge 100 LD50s, 2 treatments, Table 10

`CC1(C)S[C@@H]2[C@H](/N=C/N3CCCCCC3)C(=O)N2[C@H]1C(=O)O` [Amdinocillin, amdinocillin, reference compound] was tested. Which MIC [1] did it give?
Its MIC is 0.125 µg/mL (≈ 0.384 µM).

And the ED50 ([2]; Table 9)?
The ED50 was 69 mg/kg.

What about the ED50 ([2]; challenge 48 LD50s, 2 treatments, Table 10) of the same molecule?
Its ED50 is 22 mg/kg.

What about the ED50 ([2]; challenge 70 LD50s, 2 treatments, Table 11) of the same molecule?
The ED50 was 13 mg/kg.

What about the ED50 [2, 27] of the same molecule?
The ED50 was 12 mg/kg.

What about the ED50 ([3]; challenge 750 LD50s, Table 10) of the same molecule?
Its ED50 is > 250 mg/kg.

What about the ED50 ([3]; challenge 1000 LD50s, Table 11) of the same molecule?
The ED50 was > 250 mg/kg.

What about the ED50 ([4]; Table 9) of the same molecule?
The ED50 was < 0.025 mg/kg.

What about the ED50 ([4]; challenge >10^4 LD50s, 1 treatment, Table 10) of the same molecule?
Its ED50 is < 1 mg/kg.

And the ED50 ([4]; challenge >10^4 LD50s, 1 treatment, Table 11)?
Its ED50 is < 2 mg/kg.

What about the ED50 ([5]; Table 9) of the same molecule?
Its ED50 is 60 mg/kg.

What about the ED50 ([5]; challenge 3.3 LD50s, 2 treatments, Table 11) of the same molecule?
Its ED50 is 11 mg/kg.

What about the ED50 [5, 27] of the same molecule?
Its ED50 is 8.1 mg/kg.

What about the ED50 ([6]; Serratia marcescens, Table 9) of the same molecule?
The ED50 was > 250 mg/kg.

What about the PD50 ([6]; challenge 489 LD50s, 2 treatments, Table 11) of the same molecule?
The PD50 was > 250 mg/kg.

And the MIC [7]?
Its MIC is 0.125 µg/mL (≈ 0.384 µM).

And the MIC [8]?
Its MIC is 0.125 µg/mL (≈ 0.384 µM).

What about the MIC [9] of the same molecule?
The MIC was 0.062 µg/mL (≈ 0.191 µM).

And the MIC [10]?
The MIC was 128 µg/mL (≈ 393 µM).

What about the MIC ([10]; Pseudomonas aeruginosa, 6148B) of the same molecule?
Its MIC is > 128 µg/mL.

And the MIC ([10]; Pseudomonas aeruginosa, read-out: MIC)?
The MIC was 64 µg/mL (≈ 197 µM).

And the MIC ([11]; P. aeruginosa 503-820)?
Its MIC is 128 µg/mL (≈ 393 µM).

And the MIC ([11]; Pseudomonas aeruginosa, 503820, P. aeruginosa 503-820)?
Its MIC is > 128 µg/mL.

What about the MIC ([11]; Pseudomonas aeruginosa, 503820, P. aeruginosa 503-820, read-out: MIC) of the same molecule?
The MIC was 64 µg/mL (≈ 197 µM).

And the MIC ([12]; P. aeruginosa 5700)?
Its MIC is > 128 µg/mL.

And the MIC ([12]; Pseudomonas aeruginosa, 5700, P. aeruginosa 5700)?
Its MIC is 128 µg/mL (≈ 393 µM).

What about the MIC ([13]; S. pneumoniae 6302) of the same molecule?
The MIC was 2 µg/mL (≈ 6.15 µM).

And the MIC ([13]; Streptococcus pneumoniae, 6302, S. pneumoniae 6302, read-out: MIC)?
Its MIC is 4 µg/mL (≈ 12.3 µM).

And the MIC ([14]; P. mirabilis 90)?
Its MIC is 0.5 µg/mL (≈ 1.54 µM).

What about the MIC ([14]; Proteus mirabilis, 90, P. mirabilis 90, read-out: MIC) of the same molecule?
Its MIC is 0.25 µg/mL (≈ 0.768 µM).

What about the MIC ([15]; E. coli 5152) of the same molecule?
The MIC was 16 µg/mL (≈ 49.2 µM).

What about the MIC ([15]; Escherichia coli, 5152, E. coli 5152, read-out: MIC) of the same molecule?
Its MIC is 8 µg/mL (≈ 24.6 µM).

What about the MIC [16] of the same molecule?
The MIC was 0.125 µg/mL (≈ 0.384 µM).

What about the MIC [17] of the same molecule?
Its MIC is > 128 µg/mL.

What about the MIC [18] of the same molecule?
Its MIC is > 128 µg/mL.

What about the MIC ([19]; S. marcescens S5) of the same molecule?
The MIC was 0.5 µg/mL (≈ 1.54 µM).

What about the MIC ([19]; Serratia marcescens, S5, S. marcescens S5, read-out: MIC) of the same molecule?
Its MIC is 1 µg/mL (≈ 3.07 µM).

What about the ED50 ([20]; challenge 48 LD50s, Table 10) of the same molecule?
Its ED50 is 117 mg/kg.

What about the ED50 ([20]; challenge 71 LD50s, Table 11) of the same molecule?
The ED50 was > 250 mg/kg.

And the ED50 ([21]; Table 9)?
The ED50 was > 250 mg/kg.

And the ED50 ([21]; challenge 2717 LD50s, 2 treatments, Table 10)?
The ED50 was 84 mg/kg.

What about the ED50 ([21]; challenge 4780 LD50s, 2 treatments, Table 11) of the same molecule?
Its ED50 is 150 mg/kg.

And the ED50 ([22]; challenge 562 LD50s, Table 10)?
Its ED50 is 18 mg/kg.

What about the ED50 ([22]; challenge 3162 LD50s, Table 11) of the same molecule?
Its ED50 is 2.5 mg/kg.

And the ED50 ([23]; Enterococcus faecalis, C1, Table 9)?
Its ED50 is > 250 mg/kg.

What about the PD50 ([23]; challenge 10 LD50s, 1 treatment, Table 11) of the same molecule?
The PD50 was > 250 mg/kg.

And the ED50 ([24]; Table 9)?
Its ED50 is 204 mg/kg.

And the ED50 ([24]; challenge 1000 LD50s, 1 treatment, Table 11)?
The ED50 was > 250 mg/kg.

And the ED50 ([25]; Table 9)?
Its ED50 is > 250 mg/kg.

What about the ED50 ([25]; challenge 4.7 LD50s, 2 treatments, Table 10) of the same molecule?
Its ED50 is > 250 mg/kg.

What about the ED50 ([25]; challenge 50 LD50s, 2 treatments, Table 11) of the same molecule?
The ED50 was > 250 mg/kg.

And the ED50 [25, 27]?
Its ED50 is > 250 mg/kg.

And the ED50 [26]?
The ED50 was < 20 mg/kg.
